Laboratory results taken from patent US9963442B2, “Pyridones as herbicides” (E I DU PONT DE NEMOURS AND COMPANY, priority 2014, dated 2018).

Legend:
Format in all cases: in vivo
[1] = test system: pigweed (Amaranthus retroflexus); assay: Test A postemergence application; conditions: approx. 10 days
Outline: (§1)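 Compounds in non-phytotoxic solvent with surfactant applied as directed soil spray preemergence or postemergence to plants 2–10 cm, one- to two-leaf stage, in loam/sand. Injury rated visually versus untreated controls after about 10 days in greenhouse, 0 (no effect) to 100 (complete control).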

[2] = test system: kochia (Kochia scoparia); assay: Test A postemergence application; conditions: approx. 10 days
Outline: as §1

[3] = test system: corn (Zea mays); assay: Test A postemergence application; conditions: approx. 10 days
Outline: as §1

[4] = test system: giant foxtail (Setaria faberii); assay: Test A postemergence application; conditions: approx. 10 days
Outline: as §1

[5] = test system: blackgrass (Alopecurus myosuroides); assay: Test A postemergence application; conditions: approx. 10 days
Outline: as §1

[6] = test system: barnyardgrass (Echinochloa crus-galli); assay: Test A postemergence application; conditions: approx. 10 days
Outline: as §1

[7] = test system: Italian ryegrass (Lolium multiflorum); assay: Test A postemergence application; conditions: approx. 10 days
Outline: as §1

[8] = test system: galium (catchweed bedstraw, Galium aparine); assay: Test A postemergence application; conditions: approx. 10 days
Outline: as §1

[9] = test system: johnsongrass (Sorghum halepense); assay: Test C postemergence; conditions: scale 0 to 100, 0 is no effect, 100 is complete control
Description: (§2) Seeds of plant species selected from blackgrass (Alopecurus myosuroides), Italian ryegrass (Lolium multiflorum), winter wheat (Triticum aestivum), galium (catchweed bedstraw, Galium aparine), corn (Zea mays), large (Lg) crabgrass (Digitaria sanguinalis), giant foxtail (Setaria faberii), johnsongrass (Sorghum halepense), lambsquarters (Chenopodium album), morningglory (Ipomoea coccinea), yellow nutsedge (Cyperus esculentus), pigweed (Amaranthus retroflexus), ragweed (common ragweed, Ambrosia elatior), soybean (Glycine max), barnyardgrass (Echinochloa crus-galli), oilseed rape (Brassica napus), waterhemp (common waterhemp, Amaranthus rudis), and velvetleaf (Abutilon theophrasti) were planted into a blend of loam soil and sand and treated preemergence with test chemicals formulated in a non-phytotoxic solvent mixture which included a surfactant. At the same time, plants selected from these crop and weed species and also chickweed (common chickweed, Stellaria media), kochia (Kochia scoparia), and wild oat (Avena fatua), were planted in pots containing Sunshine Redi-Earth® planting medium comprising spaghnum peat moss, vermiculite, starter nutrients and dolomitic limestone and treated with postemergence applications of test chemicals formulated in the same manner. Plants ranged in height from 2 to 18 cm (1- to 4-leaf stage) for postemergence treatments. Treated plants and controls were maintained in a greenhouse for 13 to 15 days, after which time all species were compared to controls and visually evaluated. Plant response ratings, summarized in Table C, are based on a scale of 0 to 100 where 0 is no effect and 100 is complete control. A dash (-) response means no test result.

[10] = test system: giant foxtail (Setaria faberii); assay: Test C postemergence; conditions: scale 0 to 100, 0 is no effect, 100 is complete control
Description: as §2

[11] = test system: winter wheat (Triticum aestivum); assay: Test C postemergence; conditions: scale 0 to 100, 0 is no effect, 100 is complete control
Description: as §2

[12] = test system: blackgrass (Alopecurus myosuroides); assay: Test C postemergence; conditions: scale 0 to 100, 0 is no effect, 100 is complete control
Description: as §2

[13] = test system: large (Lg) crabgrass (Digitaria sanguinalis); assay: Test C postemergence; conditions: scale 0 to 100, 0 is no effect, 100 is complete control
Description: as §2

[14] = test system: oilseed rape (Brassica napus); assay: Test C postemergence; conditions: scale 0 to 100, 0 is no effect, 100 is complete control
Description: as §2

[15] = test system: lambsquarters (Chenopodium album); assay: Test C postemergence; conditions: scale 0 to 100, 0 is no effect, 100 is complete control
Description: as §2

[16] = test system: ragweed (common ragweed, Ambrosia elatior); assay: Test C postemergence; conditions: scale 0 to 100, 0 is no effect, 100 is complete control
Description: as §2

[17] = test system: waterhemp (common waterhemp, Amaranthus rudis); assay: Test C postemergence; conditions: scale 0 to 100, 0 is no effect, 100 is complete control
Description: as §2

[18] = test system: pigweed (Amaranthus retroflexus); assay: Test A preemergence, directed soil spray; conditions: approx. 10 days
Description: (§3) Seeds of plant species selected from barnyardgrass (Echinochloa crus-galli), kochia (Kochia scoparia), ragweed (common ragweed, Ambrosia elatior), Italian ryegrass (Lolium multiflorum), giant foxtail (Setaria faberii), and pigweed (Amaranthus retroflexus) were planted into a blend of loam soil and sand and treated preemergence with a directed soil spray using test chemicals formulated in a non-phytotoxic solvent mixture which included a surfactant. At the same time, plants selected from these weed species and also wheat (Triticum aestivum), corn (Zea mays), blackgrass (Alopecurus myosuroides), and galium (catchweed bedstraw, Galium aparine) were planted in pots containing the same blend of loam soil and sand and treated with postemergence applications of test chemicals formulated in the same manner. Plants ranged in height from 2 to 10 cm and were in the one- to two-leaf stage for the postemergence treatment. Treated plants and untreated controls were maintained in a greenhouse for approximately 10 days, after which time all treated plants were compared to untreated controls and visually evaluated for injury. Plant response ratings, summarized in Table A, are based on a 0 to 100 scale where 0 is no effect and 100 is complete control. A dash (-) response means no test result.

[19] = test system: kochia (Kochia scoparia); assay: Test A preemergence, directed soil spray; conditions: approx. 10 days
Description: as §3

[20] = test system: giant foxtail (Setaria faberii); assay: Test A preemergence, directed soil spray; conditions: approx. 10 days
Description: as §3

[21] = test system: ragweed (common ragweed, Ambrosia elatior); assay: Test A preemergence, directed soil spray; conditions: approx. 10 days
Description: as §3

[22] = test system: barnyardgrass (Echinochloa crus-galli); assay: Test A preemergence, directed soil spray; conditions: approx. 10 days
Description: as §3

[23] = test system: Italian ryegrass (Lolium multiflorum); assay: Test A preemergence, directed soil spray; conditions: approx. 10 days
Description: as §3

O=c1cccc(Oc2ncc(Cl)cn2)n1-c1ncc(Cl)cn1 [Compound 6]
Plant response rating (0 to 100 scale, 0 no effect, 100 complete control), Pigweed ([1]; 31 g ai/ha): 80 | Plant response rating (0 to 100 scale, 0 no effect, 100 complete control), Pigweed ([1]; 125 g ai/ha): 90 | Plant response rating (0 to 100 scale, 0 no effect, 100 complete control), Kochia ([2]; 31 g ai/ha): 80 | Plant response rating (0 to 100 scale, 0 no effect, 100 complete control), Kochia ([2]; 125 g ai/ha): 90 | Plant response rating (0 to 100 scale, 0 no effect, 100 complete control), Corn ([3]; 31 g ai/ha): 0 | Plant response rating (0 to 100 scale, 0 no effect, 100 complete control), Corn ([3]; 125 g ai/ha): 20 | Plant response rating (0 to 100 scale, 0 no effect, 100 complete control), Foxtail, Giant ([4]; 31 g ai/ha): 10 | Plant response rating (0 to 100 scale, 0 no effect, 100 complete control), Foxtail, Giant ([4]; 125 g ai/ha): 60 | Plant response rating (0 to 100 scale, 0 no effect, 100 complete control), Blackgrass ([5]; 31 g ai/ha): 10 | Plant response rating (0 to 100 scale, 0 no effect, 100 complete control), Blackgrass ([5]; 125 g ai/ha): 50 | Plant response rating (0 to 100 scale, 0 no effect, 100 complete control), Barnyardgrass ([6]; 31 g ai/ha): 10 | Plant response rating (0 to 100 scale, 0 no effect, 100 complete control), Barnyardgrass ([6]; 125 g ai/ha): 30 | Plant response rating (0 to 100 scale, 0 no effect, 100 complete control), Ryegrass, Italian ([7]; 31 g ai/ha): 0 | Plant response rating (0 to 100 scale, 0 no effect, 100 complete control), Ryegrass, Italian ([7]; 125 g ai/ha): 20 | Plant response rating (0 to 100 scale, 0 no effect, 100 complete control), Galium ([8]; 31 g ai/ha): 60 | Plant response rating (0 to 100 scale, 0 no effect, 100 complete control), Galium ([8]; 125 g ai/ha): 90 | Plant response rating, Johnsongrass ([9]; 16 g ai/ha): 0 | Plant response rating, Johnsongrass ([9]; 31 g ai/ha): 5 | Plant response rating, Johnsongrass ([9]; 62 g ai/ha): 5 | Plant response rating, Johnsongrass ([9]; 125 g ai/ha): 5 | Plant response rating, Foxtail, Giant ([10]; 16 g ai/ha): 5 | Plant response rating, Foxtail, Giant ([10]; 31 g ai/ha): 5 | Plant response rating, Foxtail, Giant ([10]; 62 g ai/ha): 5 | Plant response rating, Foxtail, Giant ([10]; 125 g ai/ha): 10 | Plant response rating, Wheat ([11]; 16 g ai/ha): 0 | Plant response rating, Wheat ([11]; 31 g ai/ha): 0 | Plant response rating, Wheat ([11]; 62 g ai/ha): 0 | Plant response rating, Wheat ([11]; 125 g ai/ha): 0 | Plant response rating, Blackgrass ([12]; 16 g ai/ha): 0 | Plant response rating, Blackgrass ([12]; 31 g ai/ha): 0 | Plant response rating, Blackgrass ([12]; 62 g ai/ha): 5 | Plant response rating, Blackgrass ([12]; 125 g ai/ha): 5 | Plant response rating, Crabgrass, Large ([13]; 16 g ai/ha): 5 | Plant response rating, Crabgrass, Large ([13]; 31 g ai/ha): 15 | Plant response rating, Crabgrass, Large ([13]; 62 g ai/ha): 5 | Plant response rating, Crabgrass, Large ([13]; 125 g ai/ha): 20 | Plant response rating, Oilseed Rape ([14]; 16 g ai/ha): 5 | Plant response rating, Oilseed Rape ([14]; 31 g ai/ha): 15 | Plant response rating, Oilseed Rape ([14]; 62 g ai/ha): 20 | Plant response rating, Oilseed Rape ([14]; 125 g ai/ha): 10 | Plant response rating, Lambsquarters ([15]; 16 g ai/ha): 20 | Plant response rating, Lambsquarters ([15]; 31 g ai/ha): 35 | Plant response rating, Lambsquarters ([15]; 62 g ai/ha): 65 | Plant response rating, Lambsquarters ([15]; 125 g ai/ha): 70 | Plant response rating, Ragweed ([16]; 16 g ai/ha): 25 | Plant response rating, Ragweed ([16]; 31 g ai/ha): 45 | Plant response rating, Ragweed ([16]; 62 g ai/ha): 40 | Plant response rating, Ragweed ([16]; 125 g ai/ha): 70 | Plant response rating, Waterhemp ([17]; 16 g ai/ha): 60 | Plant response rating, Waterhemp ([17]; 31 g ai/ha): 75 | Plant response rating, Waterhemp ([17]; 62 g ai/ha): 70 | Plant response rating, Waterhemp ([17]; 125 g ai/ha): 70 | Plant response rating (0 to 100 scale, 0 no effect, 100 complete control), Pigweed ([18]; 31 g ai/ha): 80 | Plant response rating (0 to 100 scale, 0 no effect, 100 complete control), Pigweed ([18]; 125 g ai/ha): 100 | Plant response rating (0 to 100 scale, 0 no effect, 100 complete control), Kochia ([19]; 31 g ai/ha): 60 | Plant response rating (0 to 100 scale, 0 no effect, 100 complete control), Kochia ([19]; 125 g ai/ha): 100 | Plant response rating (0 to 100 scale, 0 no effect, 100 complete control), Foxtail, Giant ([20]; 31 g ai/ha): 60 | Plant response rating (0 to 100 scale, 0 no effect, 100 complete control), Foxtail, Giant ([20]; 125 g ai/ha): 100 | Plant response rating (0 to 100 scale, 0 no effect, 100 complete control), Ragweed ([21]; 31 g ai/ha): 70 | Plant response rating (0 to 100 scale, 0 no effect, 100 complete control), Ragweed ([21]; 125 g ai/ha): 80 | Plant response rating (0 to 100 scale, 0 no effect, 100 complete control), Barnyardgrass ([22]; 31 g ai/ha): 20 | Plant response rating (0 to 100 scale, 0 no effect, 100 complete control), Barnyardgrass ([22]; 125 g ai/ha): 70 | Plant response rating (0 to 100 scale, 0 no effect, 100 complete control), Ryegrass, Italian ([23]; 31 g ai/ha): 0 | Plant response rating (0 to 100 scale, 0 no effect, 100 complete control), Ryegrass, Italian ([23]; 125 g ai/ha): 10
